Results taken from US7655784B2, “Trans-sialidases obtained from Trypanosoma congolense” (N.V. Nutricia, priority 2002, dated 2010).

How the values were obtained:
[1] = system: trans-sialidase TS1; assay: Trans-sialidase transfer activity of TS1 in the presence of salts, metal ions and putative inhibitors; type: biochemical, Trypanosoma congolense; details: for Effect of putative inhibitors: 10 mM; for Salt effect: reduction of enzyme activity: 1M salt, de-salting produces enzyme activity again
Procedure: (§1) In order to determine the transfer activity of the trans-sialidase, 25 μl enzyme solution in 50 mM BisTris buffer, pH7.0, are incubated together with 1 mM NeufAc-α(2-3) lactose as a donor and 0.5 mM 4-methylumbelliferyl galactoside as an acceptor in a final volume of 50 μl at 37° C. for 2 hrs. The incubation is halted by adding 1 ml ice cold water. The reaction batch is then introduced to columns previously filled with 0.3 ml Q Sepharose FF (acetate form) and pre-equilibrated with water. After having washed out the acceptor with water and having discarded the dead volume (200 μl 1N HCl), the sialated product is eluated with 1N HCl (700 μl). Following acid hydrolysis of the product at 95° C. for 45 mins and cooling on ice, the probe is neutralised with 250-290 μl 2 N NaOH and 300 μl 1M glycin/NaOH buffer pH 10.0. The fluorescence of the released methylumbelliferone is measured in black 96 well plates (Microfluor, Dynex, U.S.A.) with a stimulation wave length of 365 nm and an emission wave length of 450 nm. The activity of the enzyme corresponds to the intensity of the fluorescence measured and can be read off on a previously established calibration curve (method in accordance with Engstler et al. 1992).

[2] = system: trans-sialidase TS2; assay: Trans-sialidase transfer activity of TS2 in the presence of salts, metal ions and putative inhibitors; type: biochemical, Trypanosoma congolense; details: for Effect of putative inhibitors: 10 mM; for Salt effect: reduction of enzyme activity: 1M salt, de-salting produces enzyme activity again
Procedure: as §1

## [Co+2] [Co^2+]
[1]; 5 mM
  Effect of metal ions: Cu^2+, Zn^2+, Fe^2+, Co^2+: little effect
[2]; 5 mM
  Effect of metal ions: Cu^2+, Zn^2+, Fe^2+, Co^2+: little effect

## O=C(O)C(=O)Nc1ccc([N+](=O)[O-])cc1 [N-(4-nitrophenyl)oxamic acid, reference compound]
[1]
  Effect of putative inhibitors: 10 mM N-(4-nitrophenyl)oxamic acid: little
[2]
  Effect of putative inhibitors: 10 mM N-(4-nitrophenyl)oxamic acid: little

## [Cu+2] [Cu^2+]
[1]; 5 mM
  Effect of metal ions: Cu^2+, Zn^2+, Fe^2+, Co^2+: little effect
[2]; 5 mM
  Effect of metal ions: Cu^2+, Zn^2+, Fe^2+, Co^2+: little effect

## [Ca+2] [Ca^2+]
[1]; 20 mM
  Effect of metal ions: 20 mM Ca^2+, Mg^2+, Mn^2+: no effect 5 mM
[2]; 20 mM
  Effect of metal ions: 20 mM Ca^2+, Mg^2+, Mn^2+: no effect 5 mM

## [Cl-].[Na+] [NaCl]
[1]
  Salt effect: reduction of enzyme activity: enzymes by 50%, de-salting produces enzyme
[2]
  Salt effect: reduction of enzyme activity: enzymes by 50%, de-salting produces enzyme

## [Mn+2] [Mn^2+]
[1]; 20 mM
  Effect of metal ions: 20 mM Ca^2+, Mg^2+, Mn^2+: no effect 5 mM
[2]; 20 mM
  Effect of metal ions: 20 mM Ca^2+, Mg^2+, Mn^2+: no effect 5 mM

## [Zn+2] [Zn^2+]
[1]; 5 mM
  Effect of metal ions: Cu^2+, Zn^2+, Fe^2+, Co^2+: little effect
[2]; 5 mM
  Effect of metal ions: Cu^2+, Zn^2+, Fe^2+, Co^2+: little effect

## [Mg+2] [Mg^2+]
[1]; 20 mM
  Effect of metal ions: 20 mM Ca^2+, Mg^2+, Mn^2+: no effect 5 mM
[2]; 20 mM
  Effect of metal ions: 20 mM Ca^2+, Mg^2+, Mn^2+: no effect 5 mM

## [Fe+2] [Fe^2+]
[1]; 5 mM
  Effect of metal ions: Cu^2+, Zn^2+, Fe^2+, Co^2+: little effect
[2]; 5 mM
  Effect of metal ions: Cu^2+, Zn^2+, Fe^2+, Co^2+: little effect

## CC(=O)N[C@H]1[C@H]([C@H](O)[C@H](O)CO)OC(C(=O)O)=C[C@@H]1O [N-acetyl-2,3-didehydro-2-deoxyneuraminic acid, reference compound]
[1]
  Effect of putative inhibitors: acid: little inhibition.
[2]
  Effect of putative inhibitors: acid: little inhibition.

## [Cl-].[K+] [KCl]
[1]
  Salt effect: reduction of enzyme activity: enzymes by 50%, de-salting produces enzyme
[2]
  Salt effect: reduction of enzyme activity: enzymes by 50%, de-salting produces enzyme
